Measurements: patent publication US9994617B2, “Modulation of structured polypeptide specificity” (BICYCLE THERAPEUTICS LIMITED, priority 2011, dated 2018)
Numbered stars: 1 amine (or outer) side, 2 acyl side, 3 side chain; on linkers, the order of the positions; unused ones are H or OH. Bridge positions count the residues as written; N and C are the ends. Square brackets hold non-standard residues; d marks the D form. Peptide text beside a SMILES is read from it. TBMB = c1c(C[*:1])cc(C[*:3])cc1C[*:2]; NMeS = CN[C@@H](CO)C(=O)O; NMeA = CN[C@@H](C)C(=O)O

Molecular target: human plasma kallikrein (hPK) (Homo sapiens, UniProt P03952)
Experiment: Enzyme inhibition assay, human plasma kallikrein

Compound	Ki
CC(=O)N[C@H]1CSCc2cc3cc(c2)CSC[C@@H](NC(=O)[C@H](CCCNC(=N)N)NC(=O)[C@H](C)NC(=O)[C@@H]2CCCN2C(=O)[C@H](Cc2c[nH]c4ccccc24)NC(=O)[C@H](CO)NC1=O)C(=O)N[C@@H](CC(C)C)C(=O)N[C@@H](Cc1c[nH]cn1)C(=O)N[C@@H](CCC(N)=O)C(=O)N[C@@H](CC(=O)O)C(=O)N[C@@H](CC(C)C)C(=O)N[C@H](C(N)=O)CSC3 [Ac-(06-34-18) D-Cys2]	234 nM
CC(=O)N[C@H]1CSCc2cc3cc(c2)CSC[C@H](NC(=O)[C@H](CNC(=N)N)NC(=O)[C@H](C)NC(=O)[C@@H]2CCCN2C(=O)[C@H](Cc2c[nH]c4ccccc24)NC(=O)[C@H](CO)NC1=O)C(=O)N[C@@H](CC(C)C)C(=O)N[C@@H](Cc1c[nH]cn1)C(=O)N[C@@H](CCC(N)=O)C(=O)N[C@@H](CC(=O)O)C(=O)N[C@@H](CC(C)C)C(=O)N[C@H](C(N)=O)CSC3 [Ac-(06-34-18) Agp5]	1770 nM
CC(=O)N[C@H]1CSCc2cc3cc(c2)CSC[C@H](NC(=O)[C@@H]2CCCN2C(=O)[C@H](CO)NC(=O)[C@H](CCCNC(=N)N)NC(=O)[C@H](C)NC(=O)[C@H](Cc2c[nH]c4ccccc24)NC1=O)C(=O)N[C@@H](CC(C)C)C(=O)N[C@@H](Cc1c[nH]cn1)C(=O)N[C@@H](CCC(N)=O)C(=O)N[C@@H](CC(=O)O)C(=O)N[C@@H](CC(C)C)C(=O)N[C@H](C(N)=O)CSC3 [Ac-(06-34-18) Scram4] (Ac-CWARSPCLHQDLC-NH2; linker 1-7-13 via TBMB)	67500 nM
CC(C)[C@@H]1NC(=O)[C@H](CCCNC(=N)N)NC(=O)[C@@H]2CSCc3cc(cc(c3)CSC[C@@H](C(=O)N[C@@H](C)C(N)=O)NC(=O)[C@H](C)NC1=O)CSC[C@H](NC(=O)[C@H](C)N)C(=O)N[C@@H](Cc1ccccc1)C(=O)N1CCC[C@H]1C(=O)N[C@@H](CCCCN)C(=O)N2 [Peptide 3A3] (H-ACFPKCRVACA-NH2; linker 2-6-10 via TBMB)	43.1 nM
CC(=O)N[C@H]1CSCc2cc3cc(c2)CSC[C@H](NC(=O)C[C@H](CCCNC(=N)N)NC(=O)[C@H](C)NC(=O)[C@@H]2CCCN2C(=O)[C@H](Cc2c[nH]c4ccccc24)NC(=O)[C@H](CO)NC1=O)C(=O)N[C@@H](CC(C)C)C(=O)N[C@@H](Cc1c[nH]cn1)C(=O)N[C@@H](CCC(N)=O)C(=O)N[C@@H](CC(=O)O)C(=O)N[C@@H](CC(C)C)C(=O)N[C@H](C(N)=O)CSC3 [Ac-(06-34-18) βhomoArg5]	8.2 nM
CC(=O)N[C@H]1CSCc2cc3cc(c2)CSC[C@H](NC(=O)[C@H](CCCNC(=N)N)NC(=O)[C@@H]2CCCN2C(=O)[C@H](CO)NC(=O)[C@H](C)NC(=O)[C@H](Cc2c[nH]c4ccccc24)NC1=O)C(=O)N[C@@H](CC(C)C)C(=O)N[C@@H](Cc1c[nH]cn1)C(=O)N[C@@H](CCC(N)=O)C(=O)N[C@@H](CC(=O)O)C(=O)N[C@@H](CC(C)C)C(=O)N[C@H](C(N)=O)CSC3 [Ac-(06-34-18) Scram2] (Ac-CWASPRCLHQDLC-NH2; linker 1-7-13 via TBMB)	11400 nM
CC(=O)N[C@H]1CSCc2cc3cc(c2)CSC[C@H](NC(=O)[C@H](C)NC(=O)[C@@H]2CCCN2C(=O)[C@H](Cc2c[nH]c4ccccc24)NC(=O)[C@H](CO)NC1=O)C(=O)N[C@@H](CC(C)C)C(=O)N[C@@H](Cc1c[nH]cn1)C(=O)N[C@@H](CCC(N)=O)C(=O)N[C@@H](CC(=O)O)C(=O)N[C@@H](CC(C)C)C(=O)N[C@H](C(N)=O)CSC3 [Ac-(06-34-18) Δ Arg5] (Ac-CSWPACLHQDLC-NH2; linker 1-6-12 via TBMB)	> 100000 nM
CC(=O)N[C@H]1CSCc2cc3cc(c2)CSC[C@H](NC(=O)[C@H](CCCNC(=N)N)NC(=O)[C@H](C)N(C)C(=O)[C@@H]2CCCN2C(=O)[C@H](Cc2c[nH]c4ccccc24)NC(=O)[C@H](CO)N(C)C1=O)C(=O)N[C@@H](CC(C)C)C(=O)N[C@@H](Cc1c[nH]cn1)C(=O)N[C@@H](CCC(N)=O)C(=O)N[C@@H](CC(=O)O)C(=O)N[C@@H](CC(C)C)C(=O)N[C@H](C(N)=O)CSC3 [Ac-(06-34-18) NMeSer1, NMeAla4] (Ac-C[NMeS]WP[NMeA]RCLHQDLC-NH2; linker 1-7-13 via TBMB)	444 nM
